{"source": "patent US12516024B2", "about": "“KDM4 inhibitors” (ALBERT-LUDWIGS-UNIVERSITY FREIBURG, priority 2017, dated 2026)", "key": {"[1]": {"test": "Pharmacokinetic study iv/po", "type": "in vivo", "details": "dose iv/po 5/10 mg/kg"}, "[2]": {"target": "KDM5B (Homo sapiens, UniProt Q9UGL1)", "sequence (Q9UGL1 whole entry)": "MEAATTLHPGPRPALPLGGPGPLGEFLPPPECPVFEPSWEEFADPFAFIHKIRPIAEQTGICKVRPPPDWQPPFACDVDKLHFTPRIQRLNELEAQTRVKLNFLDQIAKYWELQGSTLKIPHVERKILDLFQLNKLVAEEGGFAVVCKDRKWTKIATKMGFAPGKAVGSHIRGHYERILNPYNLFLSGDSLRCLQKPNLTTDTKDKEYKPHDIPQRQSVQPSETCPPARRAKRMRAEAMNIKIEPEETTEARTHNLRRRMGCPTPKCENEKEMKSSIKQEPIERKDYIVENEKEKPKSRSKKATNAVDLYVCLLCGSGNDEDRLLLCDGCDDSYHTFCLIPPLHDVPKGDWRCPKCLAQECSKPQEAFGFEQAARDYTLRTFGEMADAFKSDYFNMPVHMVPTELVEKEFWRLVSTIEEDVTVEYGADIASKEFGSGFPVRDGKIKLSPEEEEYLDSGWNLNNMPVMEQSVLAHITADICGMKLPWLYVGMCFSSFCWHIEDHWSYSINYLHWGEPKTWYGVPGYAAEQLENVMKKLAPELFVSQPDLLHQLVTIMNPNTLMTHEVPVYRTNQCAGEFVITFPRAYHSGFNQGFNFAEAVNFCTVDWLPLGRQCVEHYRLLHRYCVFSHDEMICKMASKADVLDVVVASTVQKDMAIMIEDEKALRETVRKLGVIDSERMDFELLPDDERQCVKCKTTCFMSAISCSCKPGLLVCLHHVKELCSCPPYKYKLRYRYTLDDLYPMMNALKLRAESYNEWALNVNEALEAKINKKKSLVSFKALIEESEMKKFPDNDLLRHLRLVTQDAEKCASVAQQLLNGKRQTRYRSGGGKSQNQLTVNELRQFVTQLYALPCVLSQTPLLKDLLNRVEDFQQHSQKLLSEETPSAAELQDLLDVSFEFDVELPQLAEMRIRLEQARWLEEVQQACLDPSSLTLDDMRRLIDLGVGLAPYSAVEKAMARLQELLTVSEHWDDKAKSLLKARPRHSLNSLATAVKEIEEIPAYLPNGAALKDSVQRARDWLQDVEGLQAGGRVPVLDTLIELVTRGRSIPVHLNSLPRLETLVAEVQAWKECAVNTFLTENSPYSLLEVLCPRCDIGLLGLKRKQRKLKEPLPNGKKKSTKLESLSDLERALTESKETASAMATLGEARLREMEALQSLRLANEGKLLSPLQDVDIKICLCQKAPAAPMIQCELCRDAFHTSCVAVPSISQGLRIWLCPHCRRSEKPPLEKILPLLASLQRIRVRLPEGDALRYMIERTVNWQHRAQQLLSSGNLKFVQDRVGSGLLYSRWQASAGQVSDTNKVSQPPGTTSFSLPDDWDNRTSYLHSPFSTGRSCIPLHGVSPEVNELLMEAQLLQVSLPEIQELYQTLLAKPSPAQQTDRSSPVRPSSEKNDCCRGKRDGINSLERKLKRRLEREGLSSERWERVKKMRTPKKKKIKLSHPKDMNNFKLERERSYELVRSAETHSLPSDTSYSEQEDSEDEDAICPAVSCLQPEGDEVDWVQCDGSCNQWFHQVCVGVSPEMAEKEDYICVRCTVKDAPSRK", "test": "KDM demethylase inhibition (IC50), KDM5B", "type": "biochemical", "details": "in words", "protocol": "The expression levels in the BCSC cells of the various KDM4 family members were evaluated by western blot analysis. Metzger et al., LSD1 demethylates repressive histone marks to promote and rogen receptor-dependent transcription, 437 Nature 436 (2005). […] These observations indicate that KDM4 are therapeutic targets for treatment of BCSC populations. Accordingly, a screen to characterize KDM4(i) was performed to explore compounds suitable for treating cancers, in particular cancers such as therapy resistant clonal BCSC-originating tumors."}}}
{"smiles": "CN(c1ccccc1)c1ccc2c(c1)CCC[C@H]2CNc1cnccc1C(=O)O", "note": "[Compound I, 3-({[(1R)-6-[methyl(phenyl)amino]-1,2,3,4-tetrahydronaphthalen-1-yl]methyl}amino)pyridine-4-carboxylic acid]", "values": [{"measurement": "bioavailability", "setting": "[1]; plasma, read-out: F % (bioavailability)", "value": 30.4, "unit": "%"}, {"measurement": "po ½", "setting": "[1]; po", "value": 2.57, "unit": "h"}, {"measurement": "effect on the demethylase activity of KDM5B", "setting": "[2]", "value": "weak effect"}]}
